These results are taken from ChEMBL document CHEMBL1127014, “Synthesis and evaluation of imidazo[1,5-a][1,4]benzodiazepine esters with high affinities and selectivities at "diazepam-insensitive" benzodiazepine receptors” (J Med Chem, 1993).

For experiment [1], the target named is GABA-A receptor; anion channel. Put plainly: Binding affinity for Diazepam-Insensitive fraction of GABA-A benzodiazepine receptors. Format: protein-complex assay, Rattus norvegicus.
Experiment [2] addresses GABA-A receptor; anion channel. Description: (§1) Binding affinity for Diazepam-Sensitive fraction of GABA-A benzodiazepine receptors. Format: protein-complex assay, Rattus norvegicus.
Experiment [3] addresses T1, GABA-A receptor; anion channel (Rattus norvegicus) (UniProt O09028+P15431+P18506+P18508+P19969+P20236+P23574+P23576+P28471+P28473+P30191+P62813+P63079+P63138+Q91ZM7+Q9ES14). Put plainly: GABA shift ratio at Diazepam sensitive fraction of GABA-A benzodiazepine receptor. Format: protein-complex assay.
The target in experiment [4] is T1, GABA-A receptor; anion channel (Rattus norvegicus). Description: Selectivity for Diazepam insensitive compared to sensitive GABA-A benzodiazepine receptor fractions. In kind it is protein-complex assay.
Experiment [5] addresses GABA-A receptor; anion channel. Described as §1. In kind it is protein-complex assay.
For experiment [6], the target named is GABA-A receptor; anion channel. Put plainly: Inhibition of Diazepam-Insensitive fraction of GABA-A benzodiazepine receptors. In kind it is protein-complex assay, Rattus norvegicus.
Experiment [7] addresses GABA-A receptor; anion channel. Put plainly: Inhibition of Diazepam-Insensitive faction of GABA-A benzodiazepine receptors. Format: protein-complex assay, Rattus norvegicus.

Compound `COC(=O)c1ncn2c1CN(C)C(=O)c1cc(Cl)ccc1-2` showed a Ki in experiment [1] of 124 nM.

In the case of `CN1Cc2c(C(=O)OCC(C)(C)C)ncn2-c2ccc(Cl)cc2C1=O`, the inhibitory constant (Ki) in experiment [2] was 499 nM; in experiment [1], 300 nM. Moreover, the GABA shift in experiment [3] was found to be 177. Further, the Ratio in experiment [4] was 0.67.

In the case of `CN1Cc2c(C(=O)OCC3CC3)ncn2-c2ccc(Cl)cc2C1=O`, the Ki in experiment [2] amounted to 9.7 nM; in experiment [1], 39.8 nM. Moreover, in experiment [3], the GABA shift is 176. In addition, the Ratio in experiment [4] is 4.1.

Turning to `CC(C)OC(=O)c1ncn2c1CN(C)C(=O)c1cc(Cl)ccc1-2`, the Ki in experiment [5] is 10.5 nM; in experiment [1] it was 8.8 nM. Also, the GABA shift in experiment [3] was 123. Besides, the Ratio in experiment [4] worked out at 0.8.

On to `CN1Cc2c(C(=O)OC(C)(C)C)ncn2-c2ccccc2C1=O`, for which the results for the Ki in experiment [5] and in experiment [1] were 1.1 nM and 21.2 nM, respectively. Besides, the GABA shift in experiment [3] amounted to 105. Also, the Ratio in experiment [4] is 19.2.

As for `CCOC(=O)c1ncn2c1CN(C)C(=O)c1ccccc1-2` [RO-147437], the results for the Ki in experiment [2] and in experiment [1] were 1.3 nM and 214 nM, respectively. For the same compound, the GABA shift in experiment [3] is 98. The Ratio in experiment [4] came out at 165.

For `CCC(CC)OC(=O)c1ncn2c1CN(C)C(=O)c1cc(Cl)ccc1-2`, the inhibition constant (Ki) in experiment [5] amounted to 26.9 nM; in experiment [1] it was 123 nM. Besides, the GABA shift in experiment [3] was found to be 158. The Ratio in experiment [4] is 4.6.

Consider `CN1Cc2c(C(=O)OC(C)(C)C)ncn2-c2ccc(N=[N+]=[N-])cc2C1=O`, for which the inhibition constant Ki in experiment [5] turned out to be 2.1 nM; in experiment [1], 0.43 nM. The GABA shift in experiment [3] amounted to 1.76. Besides, the Ratio in experiment [4] came to 0.2.

In the case of `CCOC(=O)c1ncn2c1C1CCCN1C(=O)c1cc(Cl)ccc1-2` (stereo not drawn) [RO-145975], the inhibition constant (Ki) in experiment [5] stood at 72 nM; in experiment [1], 53 nM. In addition, the Ratio in experiment [4] is 0.73.

As for `CCOC(=O)c1ncn2c1CN(C)C(=O)c1cc(Cl)ccc1-2` [Ro-151310], the Ki in experiment [2] stood at 5.4 nM.

`CN1Cc2c(C(=O)OC(C)(C)C)ncn2-c2ccc(Cl)cc2C1=O`: the inhibition constant Ki stood at 4 nM in experiment [5] and 1.7 nM in experiment [1]. Besides, the GABA shift in experiment [3] turned out to be 116. For the same compound, in experiment [4], the Ratio came out at 0.4.

Regarding `CN1Cc2c(C(=O)OC(C)(C)C)ncn2-c2ccc(I)cc2C1=O`, the Ki in experiment [5] worked out at 7 nM; in experiment [1], 1.5 nM. For the same compound, the GABA shift in experiment [3] was 1.22. Also, the Ratio in experiment [4] is 0.21.

Compound `CN1Cc2c(C(=O)OCCC(C)(C)C)ncn2-c2ccc(Cl)cc2C1=O` registered a Ki in experiment [5] of 184 nM. In addition, the concentration for half-maximal inhibition (IC50) in experiment [6] is > 1000 nM. Further, in experiment [3], the GABA shift amounted to 201.

As to `CN1Cc2c(C(=O)OC(C)(C)C)ncn2-c2ccc([N+](=O)[O-])cc2C1=O`, the Ki in experiment [2] came out at 14 nM; in experiment [1] it was 10.8 nM. The GABA shift in experiment [3] is 1.46. In experiment [4], the Ratio came to 0.77.

On to `CN1Cc2c(C(=O)OC(C)(C)C)ncn2-c2ccc(Br)cc2C1=O`, for which the inhibitory constant (Ki) in experiment [2] came to 16 nM; in experiment [1], 2.8 nM. Moreover, the GABA shift in experiment [3] was found to be 1.06. In experiment [4], the Ratio is 0.17.

Turning to `CN(C)N=Nc1ccc2c(c1)C(=O)N(C)Cc1c(C(=O)OC(C)(C)C)ncn1-2`, the affinity in experiment [2] corresponds to a Ki of 3490 nM. Also, the 50% inhibitory concentration (IC50) in experiment [6] was > 1000 nM. The GABA shift in experiment [3] came out at 1.12.

Regarding `CCOC(=O)c1ncn2c1[C@@H]1CCCN1C(=O)c1ccccc1-2`, the figures for the inhibitory constant (Ki) in experiment [5] and in experiment [1] were 0.9 nM and 45 nM, respectively. Also, the Ratio in experiment [4] came out at 50.

Regarding `CN1Cc2c(C(=O)OC(C)(C)C)ncn2-c2ccc(N=C=S)cc2C1=O`, the values for the inhibition constant Ki in experiment [5] and in experiment [1] were 3.7 nM and 2.7 nM, respectively. Besides, in experiment [3], the GABA shift stood at 1.35. Moreover, the Ratio in experiment [4] amounted to 0.73.

On to `CCCOC(=O)c1ncn2c1CN(C)C(=O)c1sccc1-2`, for which the inhibition constant Ki came to 1.4 nM in experiment [5] and 38 nM in experiment [1]. Besides, the Ratio in experiment [4] was determined as 27.

With `COC(=O)c1ncn2c1CN(C)C(=O)c1ccccc1-2`, the inhibitory constant (Ki) in experiment [2] came out at 6.3 nM. Further, the concentration for half-maximal inhibition (IC50) in experiment [7] is > 1000 nM. Also, the GABA shift in experiment [3] came out at 99.

As to `CCCOC(=O)c1ncn2c1CN(C)C(=O)c1cc(Cl)ccc1-2`, the Ki in experiment [5] amounted to 24.8 nM; in experiment [1] it was 33.3 nM. Moreover, the GABA shift in experiment [3] was found to be 128. Also, the Ratio in experiment [4] is 1.3.

`CN1Cc2c(C(=O)OC(C)(C)C)ncn2-c2ccsc2C1=O` [RO-194603]: the Ki in experiment [2] was 0.2 nM; in experiment [1], 2.6 nM. Moreover, the Ratio in experiment [4] was 13.

Regarding `COC(=O)c1ncn2c1CN(C)C(=O)c1sccc1-2`, the Ki in experiment [5] amounted to 0.9 nM; in experiment [1], 52 nM. In addition, in experiment [4], the Ratio worked out at 57.
